Data from patent US7767670B2, “Substituted 3-carboxamido isoxazoles as kinase modulators” (Ambit Biosciences Corporation, priority 2003, dated 2010).

Target: T1, MKNK2 (Homo sapiens, UniProt Q9HBH9)
T1 construct: made in house; host or cells: T7 bacteriophage display
Assay: Binding constant (Kd) measurement, phage-displayed kinase competition binding assay
Conditions: immobilized ATP site ligand competition, read-out: activity towards the target (Kd)
From the text: Binding Constant (Kd) Measurements for Small-Molecule-Kinase Interactions

T1 sequence (Q9HBH9 whole entry): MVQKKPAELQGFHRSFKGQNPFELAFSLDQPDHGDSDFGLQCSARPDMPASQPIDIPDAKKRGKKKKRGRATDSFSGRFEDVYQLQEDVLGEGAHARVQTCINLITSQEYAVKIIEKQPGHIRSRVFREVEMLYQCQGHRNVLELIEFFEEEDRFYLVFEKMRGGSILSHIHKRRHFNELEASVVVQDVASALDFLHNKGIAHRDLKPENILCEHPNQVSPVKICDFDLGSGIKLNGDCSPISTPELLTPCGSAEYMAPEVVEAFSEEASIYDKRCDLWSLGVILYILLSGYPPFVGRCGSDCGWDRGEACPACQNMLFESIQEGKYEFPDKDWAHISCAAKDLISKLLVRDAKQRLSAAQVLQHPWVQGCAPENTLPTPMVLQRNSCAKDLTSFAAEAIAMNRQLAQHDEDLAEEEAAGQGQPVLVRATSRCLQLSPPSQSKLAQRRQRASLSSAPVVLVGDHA

SMILES: CC(C)(C)c1cc(NC(=O)Cc2ccc(NC(=O)c3ccc4cnccc4n3)cc2)no1 [Compound F2]
- Kd: < 0.05 µM
